Results on eight compounds are retold here after publication PMC10671431, “New Derivatives of N-Hydroxybutanamide: Preparation, MMP Inhibition, Cytotoxicity, and Antitumor Activity” (International Journal of Molecular Sciences, 2023).

Data set [1] addresses T1, MMP-14 (Homo sapiens, UniProt P50281).
T1 construct: the BML- prefix points to Enzo Life Sciences, own knowledge BML-AK308
The data set is described as follows: MMP activity assay, fluorogenic substrate (MMP Inhibitor Profiling Kit). The class given is biochemical. Conditions: read-out: MMP-inhibiting activity IC50, MMP-14. Here is the method:
(§1) Determination of MMP activity. A fluorescently labeled substrate probe containing a fluorescent label and a fluorescence quencher, was utilized for this study. […] Enzyme activity was assessed using the MMP Inhibitor Profiling Kit (Product # BML-AK308, New York, NY, USA) according to the manufacturer’s recommendations. The nonspecific inhibitor NNGH was used as a positive control. The fluorescence of the fluorogenic substrate OmniMMP^TM RED was measured at wavelengths Ex/Em = 545/576 nm using a Spark 10M multimode plate reader (Tecan, Zurich, Switzerland). Reaction rates were expressed in relative fluorescence units (RFUs) per minute. The activity of MMPs in the presence of the studied compounds was determined as follows:Activity, % = (Vinh/Vcont) × 100,(1) where V is the initial reaction rate (RFUs/min) in the presence (Vinh) and absence (Vcont) of the studied compounds.
(§2) All tested compounds were dissolved in DMSO. The final concentration of DMSO in all samples was 0.1%. Control samples were treated with 0.1% DMSO.

For data set [2], the target named is T2, MMP-2 (Homo sapiens, UniProt P08253).
T2 construct: the BML- prefix points to Enzo Life Sciences, own knowledge BML-AK308
T2 sequence (P08253 110-446 limits assumed): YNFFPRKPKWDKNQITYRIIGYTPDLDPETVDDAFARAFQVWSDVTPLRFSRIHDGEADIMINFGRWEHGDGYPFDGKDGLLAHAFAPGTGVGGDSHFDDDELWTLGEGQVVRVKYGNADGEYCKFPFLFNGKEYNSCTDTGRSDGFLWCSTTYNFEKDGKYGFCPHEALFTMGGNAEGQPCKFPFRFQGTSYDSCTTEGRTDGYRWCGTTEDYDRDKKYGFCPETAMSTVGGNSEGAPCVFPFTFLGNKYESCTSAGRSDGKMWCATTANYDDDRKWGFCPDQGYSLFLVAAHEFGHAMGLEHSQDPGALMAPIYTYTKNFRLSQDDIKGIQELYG
The data set is described as above. The class given is biochemical. As to conditions: read-out: MMP-inhibiting activity IC50, MMP-2. On the procedure: as §1, §2

For data set [3], the target named is T3, MMP-3 (Homo sapiens, UniProt P08254).
T3 construct: the BML- prefix points to Enzo Life Sciences, own knowledge BML-AK308
T3 sequence (P08254 100-272 limits assumed): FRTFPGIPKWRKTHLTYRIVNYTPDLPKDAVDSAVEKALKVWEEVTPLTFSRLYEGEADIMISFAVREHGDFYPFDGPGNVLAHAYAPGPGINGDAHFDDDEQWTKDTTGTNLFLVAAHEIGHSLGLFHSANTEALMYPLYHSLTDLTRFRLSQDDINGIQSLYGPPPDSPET
The data set is described as above. As to conditions: read-out: MMP-inhibiting activity IC50, MMP-3. The class given is biochemical. Here is the method: as §1, §2

The target in data set [4] is T4, MMP-9 (Homo sapiens, UniProt P14780).
T4 construct: the BML- prefix points to Enzo Life Sciences, own knowledge BML-AK308
T4 sequence (P14780 107-444 limits assumed): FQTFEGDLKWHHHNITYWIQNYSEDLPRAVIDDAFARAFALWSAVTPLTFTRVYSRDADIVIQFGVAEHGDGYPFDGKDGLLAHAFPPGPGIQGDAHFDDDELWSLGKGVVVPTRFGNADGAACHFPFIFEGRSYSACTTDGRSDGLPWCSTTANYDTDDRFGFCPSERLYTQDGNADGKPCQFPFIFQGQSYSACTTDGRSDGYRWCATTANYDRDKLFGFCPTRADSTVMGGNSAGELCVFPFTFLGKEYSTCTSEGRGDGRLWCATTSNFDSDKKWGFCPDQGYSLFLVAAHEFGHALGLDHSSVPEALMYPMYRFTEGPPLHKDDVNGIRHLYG
The description is as above. Conditions: read-out: MMP-inhibiting activity IC50, MMP-9. The class given is biochemical. Here is the method:
as §1, §2

The test system of data set [5] is U-251 MG. The data set is described as follows: Cytotoxicity, MTT test. The class given is cell-based. Conditions: Homo sapiens, 72 h of exposure. Here is the method:
(§3) Cell culture. A-172 (human glioblastoma cells), HepG2 (human hepatocellular carcinoma cells), M-HeLa (human cervical adenocarcinoma cells, M subclone), Vero (African green monkey kidney epithelial cells), and FetMSC (human embryonic mesenchymal stem cells) were purchased from the Russian Collection of Cell Cultures of Vertebrates (Institute of Cytology RAS, St. Petersburg, Russia). The U-251 MG cell line (human glioblastoma-astrocytoma) was purchased from the European Collection of Authenticated Cell Cultures (Salisbury, UK). All cells were grown at 37 °C in an atmosphere of 5% CO2. A-172 and Vero cells were cultured in DMEM medium (PanEco, Moscow, Russia). HepG2, HeLa, and U-251 MG cells were cultured in EMEM medium (PanEco). FetMSC cells were cultured in F12/DMEM medium (PanEco). All incubation media were supplemented with 10% fetal calf serum (BioWest, Nuaillé, France), 50 U/mL penicillin, and […] streptomycin (PanEco). Additionally, media for HeLa, HepG2, and U-251 MG cells were supplemented with 2 mM glutamine (PanEco) and 1% essential amino acids (PanEco), media for A-172 and Vero cells were supplemented with 4 mM glutamine, and the medium for FetMSC cells was supplemented with 3 mM glutamine. The medium for U-251 MG cells was additionally supplemented with 1 mM sodium pyruvate (PanEco).
(§4) Cytotoxicity studies. The cytotoxicity of the compounds was assessed using the MTT test. Cells were seeded into 96-well plates at varying concentrations of 5 × 10^4 cells/mL (A-172, Vero and HeLa), 7 × 10^4 cells/mL (HepG2 and U-251 MG), and 10 × 10^4 cells/mL (FetMSC). The studied compounds were added to the incubation medium 24 h after seeding at concentrations ranging from 7.8 μM to 500 μM. All compounds were dissolved in DMSO and diluted with the incubation medium to their final concentrations just before use. The incubation medium in wells was aspirated and replaced with medium containing the studied compounds. The final concentration of DMSO in all samples was 0.1%. Control samples were treated with 0.1% DMSO. After 72 h of exposure, 3-(4,5-dimethylthiazol-2-yl)-2,5-diphenyl-2H-tetrazolium bromide (MTT) (Dia-M, Moscow, Russia) was added to the incubation medium at a concentration of 0.5 mg/mL. The resulting MTT-formazan crystals were dissolved in DMSO. The optical density was measured at 570 nm with a background wavelength of 620 nm using a Spark 10M plate reader. IC50 values were determined using a median effect analysis from the dose–effect relationships.

The test system of data set [6] is A-172. The data set is described as follows: Cytotoxicity, MTT test. Format: cell-based, human. Here is the method: as §3, §4
Background: Tetrazolium assays rely on reduction of a dye to a coloured formazan, in cell work by metabolically active cells.

Data set [7] deals with FetMSC. The data set is described as follows: Cytotoxicity, MTT test. Format: cell-based, human. As to conditions: Homo sapiens; 72 h of exposure, MTT. Here is the method: as §3, §4
Data set [8] has as its system HeLa. Description: Cytotoxicity, MTT test. The class given is cell-based, human. As to conditions: 72 h of exposure. On the procedure:
as §3, §4

The subject of data set [9] is HepG2. The data set is described as follows: Cytotoxicity, MTT test. The class given is cell-based, human. Here is the method:
as §3, §4

Data set [10] relates to Vero. The data set is described as follows: Cytotoxicity, MTT test. Format: cell-based, African green monkey. Conditions: 72 h of exposure. Here is the method:
as §3, §4

Data set [11] is described as follows: Cytotoxicity, MTT test, statements on all cell lines studied. The class given is cell-based. Conditions: human, African green monkey, 72 h of exposure, summary over cell lines, read-out: cytotoxicity IC50, cells in general. Here is the method: as §3, §4
Data set [12] deals with pancreatic carcinoma cells CD18. More on the design: method as in PMID 24022491. Conditions: 5 μM, 24 h of exposure; cited from earlier work.
The subject of data set [13] is pancreatic carcinoma cells MiaPaCa2. Also noted: method as in PMID 24022491. As to conditions: 5 μM, 24 h of exposure; cited from earlier work.
Data set [14] deals with B16 melanoma. Description: Antitumor activity in vivo, tumor growth. More on the design: species or system mouse. As to conditions: BDF1 mice, i.p., CP 100 mg/kg days 2, 7, cPt 4 mg/kg days 2–9, 4 300 mg/kg days 2–9. Here is the method: (§5) Antitumor activity in vivo. The B16 mouse melanoma was used as a tumor model. The B16 melanoma tumor strain was induced in male BDF1 mice by subcutaneous inoculation of 0.2–0.5 mL of a suspension of tumor tissue in medium 199 at intervals of 12–16 days. For the experiments, BDF1 mice were inoculated with 0.3 mL of a suspension of tumor tissue diluted in a 0.9% NaCl solution at a ratio of 1:5 subcutaneously on the right side.
(§6) Compound 4 was dissolved in a 0.9% NaCl solution with 1% DMSO. […] Control animals were injected intraperitoneally with 1% DMSO in saline (0.9% NaCl) in the same volumes as the test compounds.
Tumor growth was monitored on days 0, 6, 8, 10, 13, 15, 17, and 20 by measuring the tumor size with a digital caliper. The mean tumor diameter was calculated using the formula:D = 3√a × b × c,(2) where a, b, and c are mutually perpendicular tumor diameters.

The subject of data set [15] is B16 melanoma. The data set is described as follows: Antimetastatic activity in vivo, lung metastases. More on the design: species or system mouse. Conditions: lungs, B16 melanoma, BDF1 mice, doses as in Table 5; for Number of Animals without Metastases: of 6 animals in the group. On the procedure: as §5, §6
And MNMcont. are the mean number of metastases in the experimental and control groups, respectively.

Data set [16] concerns CAC-1 cells (human cervical adenocarcinoma). Also noted: method as in PMID 11925127. As to conditions: 72 h of exposure, cited from earlier work.
Data set [17] has as its system hamster pancreatic cancer cell line PGHAM-1. More on the design: method as in PMID 11291083. As to conditions: 72 h of exposure, cited from earlier work.
Setting [18] is: Homo sapiens, A 172, 72 h of exposure.
The mark [19] stands for this setting: Homo sapiens, HepG2, 72 h of exposure.

The structures appear in SMILES notation. Bounds are passed on as bounds.

On to `O=C(CCC(=O)NNC(=O)c1ccc([N+](=O)[O-])cc1)NO` [Compound 3, N-hydroxy-4-[2-(4-nitrobenzoyl)hydrazinyl]-4-oxobutanamide], for which the IC50 in data set [1] was more than 10 µM; in [2], more than 10 µM; in data set [3], more than 10 µM; in [4] it was more than 10 µM; in [5] it was more than 500 µM; in data set [6] (setting [18]) it was more than 500 µM. In addition, the IC50 in data set [7] is more than 500 µM; in [8] (Homo sapiens, HeLa), 237 ± 14.2 µM; in [9] (setting [19]), 252 ± 15.8 µM; in [10] (Chlorocebus sabaeus, Vero) it was more than 500 µM. In data set [11], the IC50 at 72 h is more than 100 µM.

For `O=C(CCC(=O)NNC(=O)c1ccccc1[N+](=O)[O-])NO` [Compound 1, N-hydroxy-4-[2-(2-nitrobenzoyl)hydrazinyl]-4-oxobutanamide], the IC50 was more than 10 µM in data set [1]; more than 10 µM in data set [2]; more than 10 µM in data set [3]; more than 10 µM in data set [4]; more than 500 µM in data set [5]; more than 500 µM in data set [6] (setting [18]). Further, the IC50 was more than 500 µM in data set [7]; 377 ± 25.2 µM in data set [8] (Homo sapiens, HeLa); 393 ± 26.2 µM in data set [9] (setting [19]); more than 500 µM in [10] (Chlorocebus sabaeus, Vero). Besides, the IC50 at 72 h in data set [11] was more than 100 µM.

Turning to `CNC(=O)[C@@H](NC(=O)[C@H](CCCc1ccccc1)[C@H](C)N(O)C=O)C(C)(C)C` [GI254023X], the toxicity to cells entry in data set [12] and in data set [13] was “toxic” in each case.

Turning to `O=P1(N(CCCl)CCCl)NCCCO1` (stereo not drawn) [CP, cyclophosphamide], in data set [14], the “Tumor Growth Inhibition, % Day 10” value was 52.94%; the “Tumor Growth Inhibition, % Day 13” value stood at 38.10%; the “Tumor Growth Inhibition, % Day 15” value is recorded as 43.20%; the “Tumor Growth Inhibition, % Day 17” value is recorded as 27.43%. The “Tumor Growth Inhibition, % Day 20” value in [14] is recorded as 14.02%. In addition, in data set [15], the “% Inhibition of Metastases” value is 39.3%; the “Mean Number of Metastases per Mouse” value came to 7.1 ± 2.2; the “Metastasis Rate, %” value is reported as 100%; the “Number of Animals without Metastases” value turned out to be 0.

For `O=C(O)[C@@H](Cc1c[nH]c2ccccc12)NS(=O)(=O)c1ccc(-c2nnn(-c3ccccc3)n2)cc1` [MMI-166], the “cytotoxicity IC50” value in [16] is listed as “higher than 50 μg/mL”; in data set [17], “higher than 100 μg/mL”. Further, the IC50 was more than 102 µM in [16] (read-out: cytotoxicity IC50) and more than 205 µM in data set [17] (read-out: cytotoxicity IC50).

As to `COc1ccccc1C(=O)NNC(=O)CCC(=O)NO` [Compound 5, N-hydroxy-4-[2-(2-methoxybenzoyl)hydrazinyl]-4-oxobutanamide], the IC50 in data set [1] was more than 10 µM; in [2], more than 10 µM; in data set [3], more than 10 µM; in [4], more than 10 µM; in [5] it was more than 500 µM; in data set [6] (setting [18]), more than 500 µM. Moreover, the IC50 in data set [7] is more than 500 µM; in [8] (Homo sapiens, HeLa), 194 ± 13.4 µM; in [9] (setting [19]), 221 ± 12.6 µM; in data set [10] (Chlorocebus sabaeus, Vero), more than 500 µM. In addition, the IC50 at 72 h in [11] was more than 100 µM.

With `O=C(CCC(=O)NNC(=O)c1cccc([N+](=O)[O-])c1)NO` [Compound 2, N-hydroxy-4-[2-(3-nitrobenzoyl)hydrazinyl]-4-oxobutanamide], the IC50 in [1] is more than 10 µM; in data set [2], more than 10 µM; in data set [3], more than 10 µM; in [4], more than 10 µM; in data set [5], more than 500 µM; in data set [6] (setting [18]), more than 500 µM. Moreover, the half-maximal inhibitory concentration (IC50) in data set [7] was more than 500 µM; in data set [8] (Homo sapiens, HeLa) it was 185 ± 15.3 µM; in data set [9] (setting [19]) it was 213 ± 15.3 µM; in [10] (Chlorocebus sabaeus, Vero) it was more than 500 µM. The IC50 at 72 h in [11] was more than 100 µM.

In turn, `N.N.[Cl][Pt][Cl]` [Cisplatin, cisplatin] showed an IC50 in [6] (72 h of exposure) of 8.46 ± 0.92 µM. The compound also came in with an IC50 in [8] of 11.7 ± 2.41 µM. For the same compound, the IC50 in data set [9] (72 h of exposure) was determined as 13.2 ± 1.62 µM. In data set [10], this compound displayed an IC50 of 10.7 ± 1.45 µM. For the same compound, in data set [14], the “Tumor Growth Inhibition, % Day 10” value is on record as 76.47%; the “Tumor Growth Inhibition, % Day 13” value is 61.11%; the “Tumor Growth Inhibition, % Day 15” value is recorded as 52.07%; the “Tumor Growth Inhibition, % Day 17” value amounted to 32.00%. In data set [14], the “Tumor Growth Inhibition, % Day 20” value stood at 9.54%. In addition, in [15], the “% Inhibition of Metastases” value is 71.9%; the “Mean Number of Metastases per Mouse” value stood at 3.3 ± 2.4; the “Metastasis Rate, %” value came out at 83.3%; the “Number of Animals without Metastases” value is on record as 1.

In general, IC50 refers to the midpoint of a concentration-inhibition curve.
